In the oligonucleotide strings, read from the 5' end, every base follows the letter of its sugar. An asterisk marks phosphorothioate; unmarked linkages are phosphodiester. Other units and linkages are bracketed, terminal groups are in braces. A string of capitals states the bases alone. d = 2'-deoxy (DNA); m = 2'-O-methyl
Columns and labels:
Format in all cases: cell-based
[1] = biological target: T1, mouse cGAS (Mus musculus, UniProt Q8C6L5); experiment: ISD45-driven ISRE-luciferase in mouse LL171 cells; details: 2′OMe or PS oligos 50-600 nM, ISD45 2.5 μg/ml overnight
T1 construct: endogenous in cells; host or cells: LL171 (mouse L929 cells with ISRE-Luciferase)
Procedure: (§1) In such examples, inhibition of cGAS activity can be identified by observation of an overall decreased cGAS response of the cell population, or a lower proportion of cells having cGAS-positive activity as compared to positive control condition in which cells are treated with cGAS agonist in the absence of the oligonucleotide (or in the presence of an appropriate control inhibitory agent). In one example, THP-1 or HT-29 cells are transfected with ISD70 and incubated with an oligonucleotide. cGAS activity can then be determined by cytokine (e.g., IP-10 and/or IFNβ) expression (e.g., gene and/or protein expression) and/or secretion levels, such as by ELISA. A similar assay can be performed with LL171 cells transfected with ISD45. […] By way of example, cGAS enzymatic activity may be assessed in vitro using recombinant cGAS and then measuring activity thereof by way of a cGAMP ELISA.
(§2) For cGAS stimulations, cells were treated for indicated duration with ASOs, prior to transfection with ISD70 (human cells) or ISD45 (mouse cells) (the ASOs were not washed off prior to ISD transfection unless otherwise indicated). The cGAS ligands ISD45 (Stetson and Medzhitov, 2006) and ISD70 (also known as VACV-70 (Unterholzner et al., 2010)) (Table 1) were resuspended as follows: 5 1d of sense and 5 μl of antisense strands at 10 μg/μl were added to 90 μl PBS under sterile conditions, heated at 75° C. for 30 min, prior to letting cool down at room temperature and aliquoting (stock at 1 μg/1 l). The ISDs were transfected at a concentration of […] at a ratio of 1 μg:1 μl with Lipofectamine 2000 in Opti-MEM (Thermo Fisher Scientific). HEK-TLR3, HEK-TLR7 and […] were treated with indicated concentration of ASOs for 20-50 min, prior to stimulation with poly(I:C) (Invivogen), R848 (Invivogen), Motolimod (MedChemExpress) and the Class B CpG oligonucleotides ODN 2006 (synthesised by IDT and resuspended in RNase-free TE buffer [Table 1]), respectively. The TLR2/1 agonist PAM3CSK4 (Invivogen), the TLR4 agonist lipopolysaccharide (Invivogen), the Class B CpG oligonucleotides ODN 1826 (synthesised by IDT and resuspended in RNase-free TE buffer), the mouse Sting agonist DMXAA (Cayman) and the human STING agonist (compound #3 from (Raanjulu et al., 2018), referred to as GSK herein—kind gift from Cancer Therapeutics CRC, Australia) were used at indicated concentrations. Aspirin (Sigma—A2093) was resuspended in pure medium to 10 mM, filter sterilised and added to the cells at 2 mM final. All ASOs were synthesised by Integrated DNA Technologies (IDT), and resuspended in RNase-free TE buffer, pH 8.0 (Thermo Fisher Scientific). Cell viability was assessed by adding 1× fresh resazurin solution to the wells (10λ solution made up with 7 mg resazurin [Sigma—R7017] dissolved in 3.5 ml PBS, sterile filtered at […]) for 4 h, prior to reading at with a Fluostar OPTIMA (BMG LABTECH) plate-reader (fluorescence: Excitation 535 nm, Emission 590); wells with medium only and 1× resazurin were used as blanks.
Following transfection, the cells were collected from the 6-wells and aliquoted into 96-wells, just before ASO and overnight TLR stimulation (as above described).

[2] = biological target: T2, cGAS (Homo sapiens, UniProt Q8N884); experiment: ISD70-driven IP-10 (and IFN-β) production in THP-1 cells, ELISA; set-up: endogenous in cells; host or cells: THP-1 (undifferentiated); details: THP-1; 2′OMe or PS oligos, 100-250 nM, pre-treatment as in figure legends; ISD70 2.5 μg/ml
Procedure: The ability of an oligonucleotide to inhibit cGAS activity can, for example, be analysed by incubating cells which express cGAS with an oligonucleotide, then stimulating said cells with a cGAS agonist (e.g., 70-bp interferon stimulating DNA or ISD70; 45-bp interferon stimulating DNA or ISD45), and analysing the overall cGAS response in the cell population, or analysing the proportion of cells having cGAS-positive activity after a defined period of time.
as §1, §2

[3] = biological target: T3, human TLR9 (Homo sapiens, UniProt Q9NR96); experiment: HEK-TLR9 NF-κB-luciferase reporter, ODN2006 stimulation; details: HEK-TLR9; 500 nM 2′OMe or PS oligos; 200 nM ODN2006
T3 construct: HA; host or cells: 293XL-hTLR9-HA (HEK293)
T3 sequence (Q9NR96 26-1032): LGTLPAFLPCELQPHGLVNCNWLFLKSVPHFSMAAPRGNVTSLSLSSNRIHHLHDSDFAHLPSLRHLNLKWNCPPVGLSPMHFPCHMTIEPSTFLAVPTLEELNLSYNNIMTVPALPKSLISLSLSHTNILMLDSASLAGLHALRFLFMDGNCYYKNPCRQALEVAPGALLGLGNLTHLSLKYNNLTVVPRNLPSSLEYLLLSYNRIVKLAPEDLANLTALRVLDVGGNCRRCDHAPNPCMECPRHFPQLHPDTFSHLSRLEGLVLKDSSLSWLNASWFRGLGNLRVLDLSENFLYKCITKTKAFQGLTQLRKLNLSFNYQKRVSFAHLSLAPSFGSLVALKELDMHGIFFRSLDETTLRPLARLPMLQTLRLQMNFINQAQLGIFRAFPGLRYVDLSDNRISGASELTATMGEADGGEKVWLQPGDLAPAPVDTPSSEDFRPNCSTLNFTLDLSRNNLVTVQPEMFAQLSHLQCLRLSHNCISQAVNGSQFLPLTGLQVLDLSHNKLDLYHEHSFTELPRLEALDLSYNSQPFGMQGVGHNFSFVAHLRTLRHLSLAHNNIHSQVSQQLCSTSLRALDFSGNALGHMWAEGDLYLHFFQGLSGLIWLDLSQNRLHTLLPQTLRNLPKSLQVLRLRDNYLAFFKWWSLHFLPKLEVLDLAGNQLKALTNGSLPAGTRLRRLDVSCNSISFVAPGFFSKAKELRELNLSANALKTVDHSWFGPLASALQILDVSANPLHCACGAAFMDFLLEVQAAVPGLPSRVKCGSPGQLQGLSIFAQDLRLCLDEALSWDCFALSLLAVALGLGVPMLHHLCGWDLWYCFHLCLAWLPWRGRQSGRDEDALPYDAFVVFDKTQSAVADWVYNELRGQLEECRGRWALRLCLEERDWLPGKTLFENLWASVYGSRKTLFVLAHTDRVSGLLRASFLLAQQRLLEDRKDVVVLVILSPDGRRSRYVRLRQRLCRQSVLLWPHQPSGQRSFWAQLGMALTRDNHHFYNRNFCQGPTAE
Procedure: In such examples, inhibition of TLR9 activity can be identified by observation of an overall decreased TLR9 response of the cell population, or a lower proportion of cells having TLR9-positive activity as compared to positive control condition in which cells are treated with TLR9 agonist in the absence of the oligonucleotide (or in the presence of an appropriate control inhibitory agent). In one example, HEK cells are transfected with TLR9 and a NF-κB reporter and incubated with an oligonucleotide and then stimulated with a TLR9 agonist. TLR9 activity can then be determined by a luciferase assay. TLR9 activity can also be analysed by measuring cytokine levels (e.g., IFN, IL-6, TNF and IL-12), for example by ELISA.
as §2
Following transfection, the cells were collected from the 6-wells and aliquoted into 96-wells, just before ASO and overnight TLR stimulation (as above described). Similarly, the LL171 cells expressing and ISRE-Luc reporter were treated overnight. The next day, the cells were lysed in 40 μl (for a 96-well plate) of 1× Glo Lysis buffer (Promega) for 10 min at room temperature. […] was then subjected to firefly luciferase assay using 40 μl of Luciferase Assay Reagent (Promega). Luminescence was quantified with a Fluostar OPTIMA (BMG LABTECH) luminometer.

[4] = biological target: T2, cGAS; experiment: ISD70-driven IP-10 production in HT-29 cells, ELISA; set-up: endogenous in cells; details: ISD70 24 h; for effect on ISD70-induced IP-10 production at increased doses (in words): ASO overnight at 250 or 500 nM; for effect on ISD70-induced IP-10 production at low dose (in words): ASO overnight at 125 nM (62.5-125 nM)
Procedure: as §1, §2
Human IP-10 and IFN-β levels were measured using supernatants from the different cultures and were quantified using IP-10 (BD Biosciences, #550926) or IFN-β (PBL assay science, #41415-1) ELISA kits respectively, according to the manufacturers' protocol. Tetramethylbenzidine substrate (Thermo Fisher Scientific) was used for quantification of the cytokines on a Fluostar OPTIMA (BMG LABTECH) plate-reader.

[5] = biological target: T4, TLR3 (Homo sapiens, UniProt O15455); experiment: HEK-TLR3 NF-κB-luciferase reporter, poly(I:C) stimulation; set-up: host or cells: HEK-Blue hTLR3 (HEK293); details: 100 nM ASOs/ODNs, poly(I:C) 0.5 μg/ml
T4 sequence (O15455 24-904): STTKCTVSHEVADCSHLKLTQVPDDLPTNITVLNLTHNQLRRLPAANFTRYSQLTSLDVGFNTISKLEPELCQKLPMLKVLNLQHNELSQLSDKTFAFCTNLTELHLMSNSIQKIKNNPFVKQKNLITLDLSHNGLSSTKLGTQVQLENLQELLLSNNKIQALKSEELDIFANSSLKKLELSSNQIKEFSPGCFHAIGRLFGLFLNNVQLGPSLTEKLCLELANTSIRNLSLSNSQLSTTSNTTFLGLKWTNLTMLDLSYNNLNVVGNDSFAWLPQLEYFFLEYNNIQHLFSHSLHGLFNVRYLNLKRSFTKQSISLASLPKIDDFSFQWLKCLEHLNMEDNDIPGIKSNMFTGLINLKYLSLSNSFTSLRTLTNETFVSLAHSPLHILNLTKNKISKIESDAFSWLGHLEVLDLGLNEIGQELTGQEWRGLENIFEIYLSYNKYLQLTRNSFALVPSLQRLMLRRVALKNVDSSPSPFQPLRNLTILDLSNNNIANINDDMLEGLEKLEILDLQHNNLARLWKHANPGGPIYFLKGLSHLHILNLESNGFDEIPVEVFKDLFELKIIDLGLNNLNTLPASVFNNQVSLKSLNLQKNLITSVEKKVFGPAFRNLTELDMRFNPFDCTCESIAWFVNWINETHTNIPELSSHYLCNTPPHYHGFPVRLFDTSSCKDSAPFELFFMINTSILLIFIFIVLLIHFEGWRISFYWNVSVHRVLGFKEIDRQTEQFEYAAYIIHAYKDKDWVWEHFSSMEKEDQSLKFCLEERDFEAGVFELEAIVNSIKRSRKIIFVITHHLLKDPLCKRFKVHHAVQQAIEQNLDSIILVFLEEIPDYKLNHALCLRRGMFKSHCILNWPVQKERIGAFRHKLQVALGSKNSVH

T2 sequence (Q8N884 whole entry): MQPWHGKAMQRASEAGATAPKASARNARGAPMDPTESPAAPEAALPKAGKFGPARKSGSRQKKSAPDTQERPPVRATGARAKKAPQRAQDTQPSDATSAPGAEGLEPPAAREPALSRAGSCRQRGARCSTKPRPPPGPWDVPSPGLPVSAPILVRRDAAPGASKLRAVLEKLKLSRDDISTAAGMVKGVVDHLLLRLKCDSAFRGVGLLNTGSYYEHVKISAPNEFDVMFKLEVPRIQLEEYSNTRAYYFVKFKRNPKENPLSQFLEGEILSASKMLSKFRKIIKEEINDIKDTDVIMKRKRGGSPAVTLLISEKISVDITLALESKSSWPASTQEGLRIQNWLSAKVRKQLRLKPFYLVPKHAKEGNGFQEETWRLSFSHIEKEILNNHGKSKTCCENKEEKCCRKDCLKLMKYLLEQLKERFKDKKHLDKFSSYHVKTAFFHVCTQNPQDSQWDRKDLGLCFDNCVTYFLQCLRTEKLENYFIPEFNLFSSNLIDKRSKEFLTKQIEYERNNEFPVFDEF
T1 sequence (Q8C6L5 whole entry): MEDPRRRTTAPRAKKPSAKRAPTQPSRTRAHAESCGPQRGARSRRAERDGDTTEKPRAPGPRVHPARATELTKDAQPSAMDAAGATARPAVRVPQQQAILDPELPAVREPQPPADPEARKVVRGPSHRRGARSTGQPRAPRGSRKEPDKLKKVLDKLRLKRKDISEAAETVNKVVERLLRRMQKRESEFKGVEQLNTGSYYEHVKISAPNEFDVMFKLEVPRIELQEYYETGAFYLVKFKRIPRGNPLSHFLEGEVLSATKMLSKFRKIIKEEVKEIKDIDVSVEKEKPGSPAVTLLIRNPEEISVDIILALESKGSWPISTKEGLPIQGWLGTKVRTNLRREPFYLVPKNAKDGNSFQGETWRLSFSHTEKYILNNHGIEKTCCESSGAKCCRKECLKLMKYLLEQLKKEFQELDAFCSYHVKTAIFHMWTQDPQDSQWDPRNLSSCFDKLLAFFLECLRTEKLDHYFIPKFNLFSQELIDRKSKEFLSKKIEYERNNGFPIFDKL

| Substance | inhibition of TLR9 sensing of ODN2006 (in words) [3] | effect on ISD70-induced IP-10 production at low dose (in words) [4] | further results |
| --- | --- | --- | --- |
| G*C*G*G*T*A*T*C*C*A*T*G*T*C*C*C*A*G*G*C (GCGGTATCCATGTCCCAGGC; DNA, all phosphorothioate, methylation of C not given here) [C2-Mut1-PS] | – | – | inhibition of ISD45-driven ISRE-luciferase (in words) [1]: significantly decreased; inhibition of ISD70-driven IP-10 production (in words) [2]: significantly decreased |
| mC*mU*mU*mU*mA*G*T*C*G*T*A*G*T*T*G*mC*mU*mU*mC*mC (CUUUAGTCGTAGTTGCUUCC; sugars from the 5' end m5 d10 m5, all phosphorothioate, methylation of C not given here) [ASO11] | lacked the capacity to inhibit TLR9 | – | effect on ISD70-induced IP-10 production at increased doses (in words) [4]: blocked ISD70-induced IP-10 production |
| mG*mC*mG*mG*mU*A*T*A*C*A*G*G*T*C*C*mC*mA*mG*mG*mC (GCGGUATACAGGTCCCAGGC; sugars from the 5' end m5 d10 m5, all phosphorothioate, methylation of C not given here) [C2-Mut2] | – | increased inhibitory activity | – |
| mG*mG*mU*mC*mU*T*G*G*C*T*T*C*G*T*G*mG*mA*mG*mC*mA (mG*mG*mU*mC*mU*dT*dG*dG*dC*dT*dT*dC*dG*dT*dG*mG*mA*mG*mC*mA; antisense) [ASO5] | significantly inhibited TLR9 sensing of ODN2006 | – | inhibition of polyI:C sensing by TLR3 at 100 nM (in words) [5]: retained significant inhibition of polyL:C sensing |
| mU*mC*mC*mG*mG*C*C*T*C*G*G*A*G*T*C*mU*mC*mC*mA*mU (mU*mC*mC*mG*mG*dC*dC*dT*dC*dG*dG*dA*dG*dT*dC*mU*mC*mC*mA*mU; antisense) [ASO2up] | – | more potent inhibitor of ISD70-driven IP-10 production than ASO2 | – |
| mU*mC*mC*mG*mG*C*C*T*C*G*G*C*A*G*A*mU*mA*mU*mC*mG (mU*mC*mC*mG*mG*dC*dC*dT*dC*dG*dG*dC*dA*dG*dA*mU*mA*mU*mC*mG; antisense) [ASO2down] | significantly reduced TLR9 inhibition | significantly increased IP-10 production | inhibition of ISD70-driven IP-10 production (in words) [2]: significantly less inhibitory than ASO2up |
| mU*mG*mA*mU*mU*C*C*A*A*A*G*C*C*A*G*mG*mG*mU*mU*mA (mU*mG*mA*mU*mU*dC*dC*dA*dA*dA*dG*dC*dC*dA*dG*mG*mG*mU*mU*mA) [ASO10] | significantly inhibited TLR9 sensing of ODN2006 | – | effect on ISD70-induced IP-10 production at increased doses (in words) [4]: blocked ISD70-induced IP-10 production |

From US20240384268A1, “Oligonucleotides” (Hudson Institute of Medical Research, priority 2021, published 2024)
